{"source": "patent US9868763B2", "about": "“Modulators of protease activated receptors” (The University of Queensland, priority 2011, dated 2018)", "key": {"[1]": {"tested_on": "HCHF diet-induced obese rats", "test": "Diet-induced obesity and metabolic syndrome, high carbohydrate high fat (HCHF) fed rats", "assay_type": "in vivo, Wistar rat", "protocol": "Selective PAR2 antagonist 52 was used to evaluate the therapeutic potential of PAR2 antagonism in regulating adiposity, adipose tissue inflammation and metabolic function in rats fed a diet high in carbohydrates and fats (HCHF). Weekly body weight measurements (0-16 weeks) were recorded for Corn Starch CS (●) and High Carbohydrate High Fat (HCHF) (∘)-fed rats (FIG. 13A), as well as for HCHF (∘) and HCHF+PAR2 antagonist 52 (▴)-treated rats (FIG. 13B). In addition, weekly waist circumference measurements were recorded for CS (●), HCHF (∘), HCHF+PAR2 antagonist 52 (▴)-treated rats (FIG. 13 C). FIG. 13 D illustrates […] body composition measurements in CS (▪), HCHF ( ? ), HCHF+PAR2 antagonist 52 (□)-treated rats.\nRelative to rats fed a lean diet containing only corn starch (CS), those receiving the HCHF diet for 16 weeks become obese, gaining 54±4% body weight and 206±43% total fat mass, particularly visceral (abdominal) fat from week 0 to 16 (FIGS. 13A-G). FIG. 13F is an image of the abdominal fat pad at 16 weeks in rat given HCHF diet for 16 weeks, but no treatment. […] The increase in PAR2 expression in adipose tissue (FIG. 14A) and its two component fractions, adipocytes and stromal vascular cell (SVC) fractions (FIG. 14B), were all elevated by HCHF feeding, positively correlating with increased adiposity. Local adipose tissue inflammation was also elevated by HCHF feeding (FIG. 15A-F). Findings indicate that a different endogenous signal—saturated fatty acids such as palmitic acid consumed in a HCHF diet—can prime macrophages to increase their expression of PAR2.\nThe regulation of metabolic parameters by PAR2 antagonist 52 were measured in diet-induced obese rats including systolic blood pressure measurements in CS (●), HCHF (∘) and HCHF+52 (▴)-treated rats (FIG. 16 A), oral glucose tolerance in CS (●), HCHF (∘) and HCHF+PAR2 antagonist 52 (▴)-treated rats (FIG. 16 B), insulin tolerance in CS (●), HCHF (∘), HCHF+PAR2 antagonist 52 (▴)-treated rats (FIG. 16 C), plasma lipid concentrations in CS, HCHF and HCHF+PAR2 antagonist 52-treated rats (FIG. 16 D and plasma liver enzymes in CS, HCHF and HCHF+52-treated rats (FIG. 16 E, *P<0.05 vs CS; **P<0.05 vs HCHF).\nFIGS. 17A-C show representative images (20× magnification) of hepatocyte ultrastructure and fat deposition in CS (A), HCHF (B) and HCHF+PAR2 antagonist 52 (C)-treated rats. […] FIG. 17E illustrates metabolic genes in rat liver of different groups. […] Expression of mRNA in was normalized against 18s rRNA and fold change was calculated relative to CS samples. Error bars are means±SEM; *P<0.05, **P<0.01, ***P<0.001.\nRegulation of cardiovascular structure and function by PAR2 antagonist 52 in diet-induced obese rats was also measured (FIG. 18), including diastolic stiffness constant measurements in CS, HCHF, HCHF+ compound 52-treated rats (FIG. 18A) and echocardiographic characterization of cardiac structure in CS, HCHF (at 8 weeks before treatment), HCHF and HCHF+ compound 52-treated rats FIG. 18B. FIGS. 18C and D show echocardiographic characterization of cardiac function in CS, HCHF (at 8 weeks before treatment), HCHF and HCHF+ compound 52-treated rats. FIGS. 18E-G illustrate vascular organ bath responses for noradrenaline (E), sodium nitroprusside (F) and acetylcholine (G) in CS (●), HCHF (∘) and HCHF+[…] (▾)-treated rats. Representative images (40× magnification) of interstitial collagen deposition in the left ventricle of CS(H), HCHF (I) and HCHF+PAR2 antagonist 52 (J)-treated rats. FIGS. 18 K and L are graphical representations of the area of collagen deposition in perivascular (K) and interstitial (L) region of the left ventricle. *P<0.05 vs CS; **P<0.05 vs HCHF."}, "MIN6 beta cells": {"tested_on": "MIN6 beta cells", "test": "Glucose-stimulated insulin secretion (GSIS)", "assay_type": "cell-based, mouse", "settings": "52 as pre-treatment before 2f-LIGRLO-NH2", "protocol": "Rat pancreas and mouse MIN6 beta cells were cultured in DMEM (25 mM glucose) supplemented with 15% fetal calf serum, 10 U/mL penicillin, 10 U/mL streptomycin, 2 mM L-glutamine and […] 2-mercaptoethanol. MIN6 beta cells were passaged and harvested using non-enzymatic cell dissociation solution (Sigma-Aldrich). Glucose-stimulated insulin secretion (GSIS) was performed as described next. MIN6 beta cells were seeded at 0.8×106 mL in a 96-well plate and cultured for 48 h. Cells were washed twice with glucose-free Krebs buffer (NaCl 119 mM, KCl 4.74 mM, CaCl2 2.54 mM, MgCl2 1.19 mM, KH2PO4 1.19 mM, NaHCO3 25 mM, HEPES (pH 7.4) 10 mM and 0.05% BSA). Cells were pre-treated with compound 52 for 30 min with Krebs buffer supplemented with 2.5 mM glucose. After incubation, cells were washed twice with glucose-free Krebs buffer. Glucose (2.5 mM and 25 mM) and compounds were added at specified concentration and incubated for 1 h. Supernatants were collected and insulin concentrations were determined by ELISA (Abeam)."}, "[2]": {"tested_on": "λ-carrageenan-induced paw oedema", "test": "λ-carrageenan-induced paw oedema", "assay_type": "in vivo, Wistar rat", "settings": "10 mg/kg p.o., 1% λ-carrageenan intraplantar", "protocol": "Methods were based on literature (Kelso E B et al., J Pharmacol Exp Ther 2006, 316(3):1017-24; Kawabata A et al., Peptides 2001, 23(6):1181-3). Male Wistar rats (n=4 per group) were given 10 mg/kg PAR2 antagonist 52 (p.o. via gavage in olive oil, 500 μL). Control animals received only olive oil. Thirty minutes later, λ-carrageenan was administered into the right hind paw pad (1% w/v in saline, 100 μL, i.pl, Left paw saline control). Paw thickness and width were measured at 1-6, 8 and 24 h (as above) and swelling expressed in area (mm^2) and plotted as % change from baseline of each individual paw."}, "[3]": {"tested_on": "SLIGRL-NH2-induced acute colonic inflammation", "test": "PAR2-induced acute colonic inflammation", "assay_type": "in vivo, Wistar rat", "settings": "10 mg/kg p.o.", "method": "A polyethylene catheter (1.7-mm outer diameter) was inserted 8 cm into the colon via the anus, through which SLIGRL-NH2 (1 mg/rat) or saline vehicle (500 l) was administered. Rats remained anesthetized for 10 min and maintained at an angle of 40° to prevent leakage from the anus. Rats were allowed to recover with food and water supplied. All rats were terminated at 10 h after induction and scored appropriately for disease activity index (DAI) and macroscopic disease (see Disease Activity Index below). Colon tissue was taken for wet/dry ratio and MPO assay.\nDAI for both acute and chronic models was assessed and scored by an expert blinded to treatments. Scores incorporated mobility, gastrointestinal pathology, discomfort, and generalized sickness behaviour criteria (each scored 0-3). Any animal that reached stage 3 in any criteria was euthanized by CO2 inhalation and recorded as a disease-related mortality. Scores were summed and expressed as total disease score (maximum 12). DAI was measured at endpoint only (10 h) in the acute study and daily in the chronic TNBS study.\nColons were dissected post-mortem and given a macroscopic disease score based on that described previously (Bobin-Dubigeon et al., 2001) with some minor alterations (maximal score 14). The entire colon length was removed between the ileocolic and colorectal junction. Length and maximal distension width were measured. […]"}}, "note": "“Also recorded” adds a separate entry of the source.", "data": [{"smiles": "CC[C@H](C)[C@@H](NC(=O)[C@H](CC1CCCCC1)NC(=O)c1ccno1)C(=O)N1CCC2(C=Cc3ccccc32)CC1", "note": "[Compound 52]", "values": [{"measurement": "body weight gain", "setting": "[1]; 10 mg/kg/day oral, weeks 8-16", "result": "prevention"}, {"measurement": "metabolic indicators after 16 weeks of HCHF feeding", "setting": "[1]; 10 mg/kg/day oral, weeks 8-16", "result": "attenuated or reversed"}, {"measurement": "total fat mass", "setting": "[1]; 10 mg/kg/day oral, weeks 8-16", "result": "prevention"}, {"measurement": "visceral (abdominal) fat deposition", "setting": "[1]; 10 mg/kg/day oral, weeks 8-16", "result": "prevention"}, {"measurement": "increased steatosis", "setting": "[1]; HCHF rats", "result": "prevented"}, {"measurement": "M1-specific proinflammatory genes in adipose tissue", "setting": "[1]; HCHF-fed rats", "result": "drastic decreased"}, {"measurement": "M2-specific genes (Mcr2, Mgl1, Ym1, Arg1) in adipose tissue", "setting": "[1]; HCHF-fed rats", "result": "restored or upregulated"}, {"measurement": "altered Pparg, Ucp2 and Adipoq genes in retroperitoneal adipose tissue", "setting": "[1]; HCHF-fed rats", "result": "attenuated these changes"}, {"measurement": "altered gene expression in skeletal muscle and pancreas", "setting": "[1]; HCHF-fed rats", "result": "attenuated this altered gene expression"}, {"measurement": "development of diet-induced cardiac fibrosis (collagen deposition)", "setting": "[1]; HCHF-fed rats", "result": "potent inhibitory effect"}, {"measurement": "insulin tolerance test", "setting": "[1]; HCHF-fed rats", "result": "improved responsiveness to insulin; also recorded: comparable insulin sensitivity to untreated CS-fed rats"}, {"measurement": "oral glucose tolerance test", "setting": "[1]; HCHF-fed rats", "result": "improved glucose tolerance"}, {"measurement": "pancreatic genes Glut2 and Beta2", "setting": "[1]; suppressed in HCHF-fed rats", "result": "restored; also recorded: normalized"}, {"measurement": "liver genes Pparg, Srebf1, Ucp2, Ppargc1a, Cpt and Pnpla2", "setting": "[1]; treated versus untreated HCHF rats", "result": "upregulation"}, {"measurement": "pancreatic genes Iapp, Atf3, Fas and Id-1 upregulated in HCHF rats", "setting": "[1]; treatment in vivo", "result": "attenuated"}, {"measurement": "elevated triglycerides and systolic blood pressure", "setting": "[1]; treatment weeks 8-16", "result": "except for elevated triglycerides and systolic blood pressure"}, {"measurement": "increase in PAR2 expression in whole adipose, adipocyte and stromovascular cells", "setting": "[1]; treatment weeks 8-16", "result": "prevented"}, {"measurement": "metabolic parameters elevated on HCHF diet (glucose and insulin tolerance, plasma lipids, liver enzymes, cardiac structure and function)", "setting": "[1]; treatment weeks 8-16", "result": "attenuated"}, {"measurement": "glucose-stimulated insulin secretion", "setting": "MIN6 beta cells", "result": "normalised insulin secretion"}, {"measurement": "λ-carrageenan-induced oedema reduced to", "setting": "[2]", "result": 50, "unit": "%"}, {"measurement": "acute colonic inflammation induced by SLIGRL-NH2", "setting": "[3]", "result": "inhibited"}, {"measurement": "edema, mucin depletion, PAR2 receptor internalization and mastocytosis", "setting": "[3]", "result": "markedly reduced"}]}]}
